Laboratory results as given in US6495525B1, “VLA-4 inhibitor: oMePUPA-V” (Biogen, Inc., priority 1998, dated 2002).

Experiments:
[1] = test system: Ascaris suum-sensitive sheep; assay: Single dose irritancy, airways resistance after aerosol in sheep; type: in vivo; conditions: single aerosol doses 0.01-3 mg
Method: FIG. 2: Sheep, naturally sensitive to Ascaris suum, were challenged with an aerosol administration of oMePUPA-V at the doses indicated or an aerosol of Ascaris suum. Changes in airways resistance were measured following aerosol challenge and peak specific lung resistance (cm H2O/sec) after challenge was compared to baseline values. *=p<0.05 compared to PBS control, one-way analysis of variance, followed by Dunnett's test for multiple comparison to a control group. Indicates a statistically significant increase in peak specific lung resistance compared to PBS control group.

[2] = Crystallinity; type: physicochemical
[3] = target: T1, gpIIbIIIa (Homo sapiens, UniProt P05106+P08514); assay: Platelet aggregation induced by ADP in platelet rich plasma; type: cell-based
T1 construct: from tissue; host or cells: platelet rich plasma
T1 sequence (P08514 32-887 limits assumed): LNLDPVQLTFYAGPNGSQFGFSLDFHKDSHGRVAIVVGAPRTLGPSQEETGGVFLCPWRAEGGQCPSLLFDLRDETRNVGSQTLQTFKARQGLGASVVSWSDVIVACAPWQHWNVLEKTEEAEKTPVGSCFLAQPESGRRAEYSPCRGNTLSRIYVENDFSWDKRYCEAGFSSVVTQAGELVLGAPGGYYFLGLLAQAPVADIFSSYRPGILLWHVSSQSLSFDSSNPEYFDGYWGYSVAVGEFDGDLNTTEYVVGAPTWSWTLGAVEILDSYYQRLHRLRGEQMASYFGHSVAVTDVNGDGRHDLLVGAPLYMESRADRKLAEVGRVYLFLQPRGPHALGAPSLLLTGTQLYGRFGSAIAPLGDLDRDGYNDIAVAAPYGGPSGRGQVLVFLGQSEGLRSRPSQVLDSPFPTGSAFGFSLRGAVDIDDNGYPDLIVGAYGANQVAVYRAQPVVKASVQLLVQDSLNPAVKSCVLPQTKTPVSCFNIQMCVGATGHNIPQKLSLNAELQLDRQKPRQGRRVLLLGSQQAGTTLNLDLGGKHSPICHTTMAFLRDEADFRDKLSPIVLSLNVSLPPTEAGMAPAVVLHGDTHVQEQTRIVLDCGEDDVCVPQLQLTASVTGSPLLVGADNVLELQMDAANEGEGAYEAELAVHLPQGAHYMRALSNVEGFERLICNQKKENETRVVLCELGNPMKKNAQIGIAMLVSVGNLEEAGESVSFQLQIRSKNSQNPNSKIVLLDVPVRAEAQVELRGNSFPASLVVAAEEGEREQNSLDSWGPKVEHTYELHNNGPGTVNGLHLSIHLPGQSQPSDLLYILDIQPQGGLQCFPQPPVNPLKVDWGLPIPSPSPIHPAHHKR
T1 sequence (P08514 891-1039 partner limits assumed): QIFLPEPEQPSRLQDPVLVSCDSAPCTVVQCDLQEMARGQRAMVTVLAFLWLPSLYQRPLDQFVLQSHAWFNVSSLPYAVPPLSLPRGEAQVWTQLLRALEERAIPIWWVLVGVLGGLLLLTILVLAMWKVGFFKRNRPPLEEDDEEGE
T1 sequence (P05106 27-788): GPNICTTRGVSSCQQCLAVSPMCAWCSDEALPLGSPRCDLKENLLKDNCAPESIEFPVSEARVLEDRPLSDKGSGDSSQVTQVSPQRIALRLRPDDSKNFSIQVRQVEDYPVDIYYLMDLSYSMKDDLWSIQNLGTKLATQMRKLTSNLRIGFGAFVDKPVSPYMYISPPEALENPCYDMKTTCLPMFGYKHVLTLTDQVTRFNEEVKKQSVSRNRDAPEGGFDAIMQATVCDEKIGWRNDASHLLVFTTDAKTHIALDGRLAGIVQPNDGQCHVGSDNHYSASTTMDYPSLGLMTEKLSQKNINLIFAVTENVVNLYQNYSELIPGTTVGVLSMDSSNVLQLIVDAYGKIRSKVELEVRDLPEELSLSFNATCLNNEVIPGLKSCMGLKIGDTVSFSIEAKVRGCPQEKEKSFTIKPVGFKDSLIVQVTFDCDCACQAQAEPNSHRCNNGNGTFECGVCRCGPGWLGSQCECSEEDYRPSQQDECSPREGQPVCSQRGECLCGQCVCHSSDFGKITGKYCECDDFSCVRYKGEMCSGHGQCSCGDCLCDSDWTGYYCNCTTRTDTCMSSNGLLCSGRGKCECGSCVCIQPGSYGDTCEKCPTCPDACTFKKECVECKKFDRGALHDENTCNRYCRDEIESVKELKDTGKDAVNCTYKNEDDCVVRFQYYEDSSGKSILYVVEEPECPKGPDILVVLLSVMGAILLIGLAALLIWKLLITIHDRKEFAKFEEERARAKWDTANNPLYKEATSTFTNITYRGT
Method: Activity against gpIIbIIIa was assessed by means of standard platelet aggregometry using platelet rich plasma. ADP was used to initiate aggregation in the presence of plasma where Ca^+2 and Mg^+2 are the major divalent cations. GRGDSP @ 100 ug/mL was used as a positive control.

[4] = target: T2, VLA-4 (Homo sapiens, UniProt P05556+P13612); assay: VLA-4-VCAM-Ig binding (Table 1; VLA-4 binding assays); parameters: endogenous in cells; host or cells: Jurkat (human T cell line); conditions: read-out: IC50 against VLA-4-VCAM-Ig binding
T2 sequence (P13612 34-1032): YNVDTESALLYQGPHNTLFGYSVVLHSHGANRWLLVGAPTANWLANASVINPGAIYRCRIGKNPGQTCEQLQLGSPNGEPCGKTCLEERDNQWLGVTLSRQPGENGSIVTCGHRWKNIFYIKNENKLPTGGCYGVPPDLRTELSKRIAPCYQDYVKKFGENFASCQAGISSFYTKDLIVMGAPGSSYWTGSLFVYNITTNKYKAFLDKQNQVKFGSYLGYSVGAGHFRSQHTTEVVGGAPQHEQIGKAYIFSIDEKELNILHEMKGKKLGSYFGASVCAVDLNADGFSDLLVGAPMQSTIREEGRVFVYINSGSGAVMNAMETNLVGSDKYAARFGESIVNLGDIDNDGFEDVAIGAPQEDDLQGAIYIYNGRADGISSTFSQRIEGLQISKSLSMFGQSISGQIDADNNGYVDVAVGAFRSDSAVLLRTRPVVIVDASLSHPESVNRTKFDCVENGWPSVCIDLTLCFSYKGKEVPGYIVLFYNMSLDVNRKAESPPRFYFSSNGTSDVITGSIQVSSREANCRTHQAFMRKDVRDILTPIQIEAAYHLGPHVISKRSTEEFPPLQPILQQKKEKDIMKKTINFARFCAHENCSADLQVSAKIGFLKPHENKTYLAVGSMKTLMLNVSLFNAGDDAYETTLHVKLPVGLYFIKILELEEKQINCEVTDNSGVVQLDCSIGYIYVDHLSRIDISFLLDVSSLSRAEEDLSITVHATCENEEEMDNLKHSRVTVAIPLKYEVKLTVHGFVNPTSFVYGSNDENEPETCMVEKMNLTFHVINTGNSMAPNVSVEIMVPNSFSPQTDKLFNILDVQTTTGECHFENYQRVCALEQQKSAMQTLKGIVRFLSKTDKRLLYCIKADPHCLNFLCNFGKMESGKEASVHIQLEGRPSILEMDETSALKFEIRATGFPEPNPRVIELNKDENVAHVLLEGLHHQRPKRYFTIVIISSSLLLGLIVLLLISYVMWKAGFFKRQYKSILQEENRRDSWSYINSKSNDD
T2 sequence (P05556 21-798): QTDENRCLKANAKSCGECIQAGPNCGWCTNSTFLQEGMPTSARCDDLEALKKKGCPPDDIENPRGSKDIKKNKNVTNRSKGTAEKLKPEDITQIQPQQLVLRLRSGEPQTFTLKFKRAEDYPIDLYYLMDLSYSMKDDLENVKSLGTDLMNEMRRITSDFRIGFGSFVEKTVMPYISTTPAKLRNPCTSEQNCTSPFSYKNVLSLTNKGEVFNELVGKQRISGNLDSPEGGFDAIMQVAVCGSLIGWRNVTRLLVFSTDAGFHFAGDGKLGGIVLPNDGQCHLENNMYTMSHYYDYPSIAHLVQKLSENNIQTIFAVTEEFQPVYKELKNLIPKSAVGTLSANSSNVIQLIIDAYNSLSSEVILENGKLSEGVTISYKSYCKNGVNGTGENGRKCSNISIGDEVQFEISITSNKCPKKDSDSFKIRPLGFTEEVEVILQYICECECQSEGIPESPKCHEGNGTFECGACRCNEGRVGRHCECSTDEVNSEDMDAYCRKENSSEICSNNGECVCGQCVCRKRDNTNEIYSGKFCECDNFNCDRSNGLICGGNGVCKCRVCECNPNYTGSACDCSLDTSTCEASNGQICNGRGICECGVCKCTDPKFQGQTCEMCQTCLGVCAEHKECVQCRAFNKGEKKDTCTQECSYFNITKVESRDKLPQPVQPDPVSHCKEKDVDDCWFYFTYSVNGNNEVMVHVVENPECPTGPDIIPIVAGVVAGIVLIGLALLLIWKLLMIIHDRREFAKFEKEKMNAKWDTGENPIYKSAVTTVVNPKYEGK
Description: A direct binding assay may also be employed to quantitate the inhibitory activity of the compounds of this invention. In this assay, a VCAM-IgG fusion protein containing the first two immunoglobulin domains of VCAM (D1D2) attached above the hinge region of an IgG1 molecule (“VCAM 2D-IgG”), is conjugated to a marker enzyme, such as alkaline phosphatase (“AP”). The synthesis of this VCAM-IgG fusion is described in PCT publication WO 90/13300, the disclosure of which is herein incorporated by reference. The conjugation of that fusion to a marker enzyme is achieved by cross-linking methods well-known in the art.
The VCAM-IgG enzyme conjugate is then placed in the wells of a multi-well filtration plate, such as that contained in the Millipore Multiscreen Assay System (Millipore Corp., Bedford, Ma.). Varying concentrations of the test inhibitory compound are then added to the wells followed by addition of VLA-4-expressing cells. The cells, compound and VCAM-IgG enzyme conjugate are mixed together and allowed to incubate at room temperature.
Following incubation, the wells are vacuum drained, leaving behind the cells and any bound VCAM. Quantitation of bound VCAM is determined by adding an appropriate colorimetric substrate for the enzyme conjugated to VCAM-IgG and determining the amount of reaction product. Decreased reaction product indicates increased binding inhibitory activity. […]

[5] = target: T2, VLA-4; assay: Competition / dissociation assay with 3H-known inhibitor on Jurkat cells; type: binding; parameters: endogenous in cells; host or cells: Jurkat (human T cell line); conditions: Mn+2-activated VLA-4
Method: Jurkat cells were maintained in RPMI-1640 medium plus 10% fetal bovine serum at 37° C. in a tissue culture incubator. For binding studies, the cells were pelleted by centrifugation, washed two times with TBS (50 mM Tris HCl, 150 mM NaCl, 0.1% bovine serum albumin, 2 mM glucose, 10 mM HEPES pH 7.4), suspended at approximately 2×10^6 cells/ml in TBS, and counted using a Neubauer hemocytometer. The cells were further diluted to 1.5×10^6/ml in the buffers indicated and subjected to the specific treatments defined for each experiment. The cells were then pelleted by centrifugation, resuspended in 100 μl of assay buffer, and transferred to a scintillation vial containing 2.9 ml of ScintiVerse II (Fisher Scientific). Cell-associated radioactivity was quantified by scintillation counting. Counts bound under these conditions measures integrin that is not occupied by the test compound and is therefore free to bind the ^3H-known inhibitor. […] Specific counts bound were calculated by subtracting non-specific counts from total counts bound.
A series of competition studies were performed to verify that oMePUPA-V and the known inhibitor compete for the same site on VLA-4. […] Third, Mn^+2-activated Jurkat cells were treated with saturating amounts of oMePUPA-V, and the rate at which the oMePUPA-V dissociated was measured. […]

Question: What does the source list for Cc1ccccc1NC(=O)Nc1ccc(CC(=O)N2CCC[C@H]2C(=O)N[C@H](C)CC(=O)O)cc1 [oMePUPA-V]?
Answer: irritant effect, change in airways resistance compared to baseline [1]: lack of change in airways resistance compared to baseline resistance; Crystallinity [2]: YES; measurable activity against gpIIbIIIa [3]: > 100 µM; inhibition, platelets (IIbIIIa) fibrinogen aggregation ([3]; @ 100 μM, Ca+2/Mg+2): no inhibition @; inhibition of ADP-induced platelet aggregation (in words) ([3]; three doses 1, 10 and 100 μM): did not inhibit; IC50 [4]: 2.7 nM; concentration needed to compete 3H-known inhibitor binding, relative to cold known inhibitor [5]: 10 fold
